Measurements published in PubChem BioAssay AID256 (DTP/NCI, 2004).
Inconclusive results and toxic doses are left out.

Test system: CD2F1 mice, L1210 leukemia ip, survival T/C
Assay: NCI In Vivo Anticancer Drug Screen. Data for tumor model L1210 Leukemia (intraperitoneal) in CD2F1 (CDF1) mice
Settings: endpoint: mean survival time, higher = longer survival
Summary of the method: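 Activity against a transplanted murine tumor was judged by comparing the compound group with a vehicle group. The outcome in the treated animals was divided by that in the controls.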

COc1cc2c3c(c1)-c1c(ccc(OC)c1OC)CC3N(CCCl)CC2 (stereo not drawn)
T/C (dose: 25.0 mg/kg/injection, schedule: Q04DX003 (ip), vehicle: water): 98 % of control | T/C (dose: 50.0 mg/kg/injection, schedule: Q04DX003 (ip), vehicle: water): 105 % of control

CCCCn1c(C)nc2c([N+](=O)[O-])cc(C(F)(F)F)cc21
T/C (dose: 50.0 mg/kg/injection, schedule: Q01DX001 (ip), vehicle: saline with Tween-80): 95 % of control | T/C (dose: 100.0 mg/kg/injection, schedule: Q01DX001 (ip), vehicle: saline with Tween-80): 98 % of control | T/C (dose: 200.0 mg/kg/injection, schedule: Q01DX001 (ip), vehicle: saline with Tween-80): 95 % of control

C#CCCCN1CCC2(CC1)C(=O)N(C(=O)N(C)C)CN2c1ccccc1
T/C (dose: 25.0 mg/kg/injection, schedule: Q01DX009 (ip), vehicle: saline with Tween-80): 100 % of control | T/C (dose: 50.0 mg/kg/injection, schedule: Q01DX009 (ip), vehicle: saline with Tween-80): 96 % of control | T/C (dose: 100.0 mg/kg/injection, schedule: Q01DX009 (ip), vehicle: saline with Tween-80): 97 % of control
